Molecular target: IDH1 R132H (Homo sapiens (Human), UniProt O75874, R132H)
Assay: In vitro assay for IDH1m (R132H) inhibitors, NADPH depletion with resazurin/resorufin detection
Format: biochemical
Settings: IDH1 R132H enzyme, 50 minutes at room temperature; read-out: IDH R132H IC50
Method: Assays were conducted in a volume of 76 μl assay buffer (150 mM NaCl, 10 mM MgCl2, 20 mM Tris pH 7.5, 0.03% bovine serum albumin) as follows in a standard 384-well plate: To 25 ul of substrate mix (8 uM NADPH, 2 mM aKG), 1 μl of test compound was added in DMSO. The plate was centrifuged briefly, and then 25 μl of enzyme mix was added (0.2 μg/ml IDH1 R132H) followed by a brief centrifugation and shake at 100 RPM. The reaction was incubated for 50 minutes at room temperature, then 25 μl of detection mix (30 μM resazurin, […]) was added and the mixture further incubated for 5 minutes at room temperature. The conversion of resazurin to resorufin was detected by fluorescent spectroscopy at Ex544 Em590 c/o 590.
Representative compounds of formula (I) set forth in Tables 1 and 2 were tested in this assay and the results are set forth below in Table 4.

Sequence of IDH1 R132H (O75874 whole entry R132H): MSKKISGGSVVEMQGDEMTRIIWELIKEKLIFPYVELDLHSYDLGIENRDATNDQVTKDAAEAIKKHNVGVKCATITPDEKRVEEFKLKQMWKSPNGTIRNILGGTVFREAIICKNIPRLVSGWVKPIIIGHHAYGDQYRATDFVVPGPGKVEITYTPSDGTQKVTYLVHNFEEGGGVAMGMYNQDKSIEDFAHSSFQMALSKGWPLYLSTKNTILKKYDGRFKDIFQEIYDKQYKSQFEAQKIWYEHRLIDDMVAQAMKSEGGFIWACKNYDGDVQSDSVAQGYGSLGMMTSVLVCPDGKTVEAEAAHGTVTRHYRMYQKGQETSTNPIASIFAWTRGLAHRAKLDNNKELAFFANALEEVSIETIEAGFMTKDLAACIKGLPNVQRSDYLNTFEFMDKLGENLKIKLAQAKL

For Cc1ccc(NC(=O)Nc2cccc(C(F)(F)F)c2)cc1S(=O)(=O)Nc1ccc(S(C)(=O)=O)cc1 [Compound 313], the IC50 was 1 to 10 µM.
For Cc1ccc(NC(=O)Nc2cccc(C(F)(F)F)c2)cc1S(=O)(=O)Nc1cccc(CCc2ccccc2)c1 [Compound 314], the IC50 was 1 to 10 µM.
Molecule Cc1ccc(NC(=O)Nc2cccc(C(F)(F)F)c2)cc1S(=O)(=O)Nc1ccc2c(c1)OCCO2 [Compound 315, N-(2,3-dihydrobenzo[b][1,4]dioxin-6-yl)-2-methyl-5-(3-(3(trifluoromethyl)phenyl)ureido)benzenesulfonamide] has an IC50 of 1 to 10 µM.
Work on Cc1ccc(NC(=O)Nc2cccc(C(F)(F)F)c2)cc1S(=O)(=O)Nc1ccc2cc[nH]c2c1 [Compound 316, N-(1H-indol-6-yl)-2-methyl-5-(3-(3-(trifluoromethyl)phenyl)ureido)benzenesulfonamide] yielded an IC50 of 1 to 10 µM.
Molecule CC(=O)n1ccc2cc(NS(=O)(=O)c3cc(NC(=O)Nc4cccc(C(F)(F)F)c4)ccc3C)ccc21 [Compound 318] has an IC50 of 1 to 10 µM.
Work on Cc1ccc(NC(=O)Nc2cccc(C(F)(F)F)c2)cc1S(=O)(=O)Nc1ccc2c(c1)ncn2C [Compound 320, 2-methyl-N-(1-methyl-1H-benzo[d]imidazol-5-yl)-5-(3-(3-(trifluoromethyl)phenyl)ureido)benzene sulfonamide] yielded an IC50 of 1 to 10 µM.
Cc1ccc(NC(=O)Nc2cccc(C(F)(F)F)c2)cc1S(=O)(=O)Nc1cccc2ncccc12 [Compound 321] gave an IC50 of 1 to 10 µM.
Cc1ccc(NC(=O)Nc2cccc(C(F)(F)F)c2)cc1S(=O)(=O)Nc1ccc(-c2nn[nH]n2)cc1 [Compound 322] showed an IC50 of 1 to 10 µM.
With Cc1ccc(NC(=O)Nc2cccc(C(F)(F)F)c2)cc1S(=O)(=O)N1CCNCC1 [Compound 323] the IC50 was 1 to 10 µM.
CCOC(=O)COc1ccc(NS(=O)(=O)c2cc(NC(=O)Nc3ccc(C(F)(F)F)cc3)ccc2C)cc1 [Compound 325] was tested, and the IC50 was 1 to 10 µM.
Cc1ccc(NC(=O)Nc2ccc(C(F)(F)F)cc2)cc1S(=O)(=O)Nc1ccc(OCC(=O)O)cc1 [Compound 326] gave an IC50 of 1 to 10 µM.
For Cc1ccc(NC(=O)Nc2ccc(C(F)(F)F)cc2)cc1S(=O)(=O)Nc1ccc(OS(C)(=O)=O)cc1 [Compound 327], the IC50 was 1 to 10 µM.
CCOC(=O)C(C)Oc1ccc(NS(=O)(=O)c2cc(NC(=O)Nc3ccc(C(F)(F)F)cc3)ccc2C)cc1 (stereo not shown) [Compound 328] was tested, and the IC50 was 1 to 10 µM.
CC(=O)Nc1ccc(NS(=O)(=O)c2cc(NC(=O)Nc3ccc(C(F)(F)F)cc3)ccc2C)cc1 [Compound 329] gave an IC50 of 1 to 10 µM.
With CCOC(=O)CNc1ccc(NS(=O)(=O)c2cc(NC(=O)Nc3ccc(C(F)(F)F)cc3)ccc2C)cc1 [Compound 330] the IC50 was 1 to 10 µM.
For Cc1ccc(NC(=O)Nc2ccc(C(F)(F)F)cc2)cc1S(=O)(=O)Nc1ccc(S(C)(=O)=O)cc1 [Compound 331], the IC50 was 1 to 10 µM.
Molecule Cc1ccc(NC(=O)Nc2ccc(C(F)(F)F)cc2)cc1S(=O)(=O)Nc1cccc(CCc2ccccc2)c1 [Compound 332] has an IC50 of 1 to 10 µM.
CCc1ccc(NC(=O)Nc2cccc(C(F)(F)F)c2)cc1S(=O)(=O)Nc1ccc(Cl)cc1 [Compound 333] gave an IC50 of 1 to 10 µM.
In the case of Cc1ccc(NC(=O)Nc2cccc(S(=O)(=O)Nc3ccccc3)c2)cc1S(=O)(=O)Nc1ccc(Cl)cc1 [Compound 334], the IC50 is reported as 1 to 10 µM.
Molecule Cc1ccc(NC(=O)Nc2cccc(S(=O)(=O)Nc3ccc(Cl)cc3)c2)cc1S(=O)(=O)Nc1ccccc1 [Compound 335] has an IC50 of 1 to 10 µM.
For Cc1ccc(NC(=O)Nc2ccc(C)c(S(=O)(=O)Nc3ccc(Cl)cc3)c2)cc1S(=O)(=O)Nc1ccc(Cl)cc1 [Compound 336], the IC50 was 1 to 10 µM.
O=C(Nc1cccc(C(F)(F)F)c1)Nc1cc(S(=O)(=O)Nc2ccccc2)ccc1-c1ccsc1 [Compound 351, N-phenyl-4-(thiophen-3-yl)-3-(3-(3-(trifluoromethyl)phenyl)ureido)benzenesulfonamide] was tested, and the IC50 was 1 to 10 µM.
Cc1ccc(NC(=O)Nc2cccc(C(F)(F)F)c2)cc1S(=O)(=O)Nc1cccc(O)c1 [compound 303] gave an IC50 of 1 to 10 µM.
In the case of “N-(1H-benzo[d]imidazol-7-yl)-2-methyl-5-(3-(3-(trifluoromethyl)phenyl)ureido)benzenesulfonamide [Compound 319]”, the IC50 is reported as 1 to 10 µM.
“N-(1H-indol-7-yl)-2-methyl-5-(3-(3-(trifluoromethyl)phenyl)ureido)benzenesulfonamide [Compound 317]” showed an IC50 of 1 to 10 µM.

— patent US10202339B2, “Therapeutic compounds and compositions” (AGIOS PHARMACEUTICALS, INC., priority 2012, dated 2019)
